Source: patent publication US11529343B2, “Compositions and methods for identifying and treating dystonia disorders” (DUKE UNIVERSITY, priority 2015, dated 2022)
Entries after “also recorded” stand apart in the source; their conditions may differ. Counter-ions that a name gives are not always drawn.

What was measured:
[1] = system: delta-E Torsin1a localization; test: Delta-E Torsin1a mislocalization assay (% cells with EGFP puncta, high-content imaging); assay type: cell-based, human; conditions: for effect on delta-E Torsin1a localization (cells with puncta), in words: dose response; for % pathology CC-v2 (dose response Curve Class): curve class per Inglese et al. 2006
Procedure: To limit variation in expression levels associated with random integration or transient expression, single copies of either WT or delta-E human TOR1A cDNAs with N-terminal EGFP fusions were inserted at the FRT site in Flp-In™ T-Rex™ 293 cells (Thermo Fisher Scientific #R780-07) via flippase recombinase-mediated cassette exchange according to the manufacturer's recommended protocols.
The cells were maintained at 37° C./5% CO2. All experiments were performed on cells with fewer than 5 passages.
Torsin1a expression was also controlled by tetracycline induction to avoid selective pressure modifying the cellular phenotypes. […] The mutant phenotype was measured as the percentage of cells with one or more EGFP puncta using automated high-content imaging analysis (see infra).
The image analysis algorithm was developed using the Cellomics ArrayScan V CompartmentAnalysisV2 protocol. Hoechst's nuclear staining (Ch1: excitation 350 nm; emission 461 nm) was used for focusing and for cell identification by nuclear size, shape, and intensity. […] Detected cells were gated according to nuclear area, length-to-width ratio, and perimeter-to-area ratio. For the purpose of analysis, cell bodies were defined by a radius of 10 μm from the outer edge of the defined nucleus. Overlapping cells were automatically segmented according to the Cellomics ArrayScanV CompartmentAnalysisV2 object segmentation feature. EGFP fluorescence (Ch2: excitation 488 nm; emission 509 nm) was used for puncta detection. […] Torsin a puncta were identified using the spot detection feature of the Compartmental AnalysisV2 protocol. The percentage of cells containing one or more puncta was used as the primary metric in this assay.
(§1) In order to test this model directly, the delta-E Torsin1a cell line was treated with compounds targeting the eIF2-alpha signaling pathway (FIG. 2). […] The following day, serial drug dilutions were prepared at 2× final concentration in assay media containing 10 μg/mL tetracycline and 30 μL of the drug/tetracycline mixture was added to the appropriate wells, while control wells received 30 μL of assay media alone or assay media+10 μg/mL tetracycline (final tetracycline concentration for all wells except negative controls: 5 μg/mL). Cells were then incubated at 37° C./5% CO^2 for 48 hours and fixed, permeabilized, Hoechst stained, and imaged as described above. The range of the Torsin1a localization effect was normalized to the percentage of cells with puncta in vehicle-treated delta-E cell line as the maximum and that in WT cell line as the minimum (FIG. 2, panels c-h). Cell count and EGFP-Torsin1a expression were normalized to their respective values in the vehicle-treated delta-E cell line as the maximum. All dose response data are the average of 4 independent experiments per dose. Untreated control data used for normalization are the average of 24 independent experiments.

[2] = system: luciferase secretion; test: C.Luc. Secretion Assay; assay type: cell-based; conditions: for effect on secretory deficits, in words: orthogonal assays
Procedure: We tested each shRNA for its ability to rescue a previously described defect in luciferase secretion. Chen, P. et al. (2010) Hum. Mol. Genet. 19, 3502-15; Cao, S. et al. (2010) Dis. Model Mech. 3, 386-96; Barrows, N. J., et al., (2010) J. Biomol. Screen. 15, 735-47.) DYT1 patient data were obtained from 4 independent patient-derived lines and WT data (black bar) from 3 normal healthy control lines. Each line was tested in 5 independent experiments that included 4 technical replicates each (with the exception of SCD data from 3 independent experiments).
(Cao, S. et al. (2010) Dis. Model. Mech. 3, 386-96.) Subsequent testing of additional HIV protease inhibitors supported the activity of this class of compounds and generated favorable structure-activity relationship (SAR) data from which to design improved compounds (Tables 5 and 6). The results with a subset of compounds were also observed in a Luciferase secretion assay (Tables 5 and 6).

[3] = system: homozygous DYT1 knock-in mice; test: Perinatal survival of DYT1 knock-in mice after in utero exposure; assay type: in vivo
Description: Pairs of heterozygous delta-E Torsin1a knock-in breeders (courtesy of Dr. W. Dauer, University of Michigan) were randomly assigned to vehicle or salubrinal treatment groups. Starting 10 days after breeding cages were established, each female mouse was given a daily subcutaneous injection of vehicle or salubrinal at approximately 6 p.m. Cages were checked for new pups three times per day: morning (˜8 a.m.), early afternoon (˜2 p.m.), and during injections (˜6 p.m.). In order to minimize stress and the possibility of litter abandonment, mice with newborn pups were not given injections. Newborn pups were identified by marking limbs with a permanent laboratory marker, and tail samples were taken for genotyping at P0. At approximately P0.5, cages were checked again, and the status of each pup was recorded. If pups were first observed at the 8 am check, the 2 pm check was considered P0.5. If pups were first observed at the 2 pm or 6 pm checks, an additional check was performed at approximately midnight, and considered P0.5. Mortality was also tracked the following day, after which time identifying marks were predominately washed off or obscured by fur. Approximately 8 days after birth all remaining pups were sacrificed, and 10 days after birth daily injections resumed for the subsequent litter. All genotyping and, whenever possible, all pup identification and mortality checks were performed blinded to treatment group.
Salubrinal (R&D Systems #2347) stocks were prepared at 26 mM (10× final concentration) in DMSO and stored in single-use aliquots at −80° C. Each day immediately before injections, a single salubrinal aliquot was thawed to room temperature and diluted 1:10 in injection vehicle (final vehicle composition: 1×PBS/10% DMSO/0.1% BSA). Empty injection vehicle was stored at room temperature in single-use aliquots. Mice were given a single subcutaneous injection of 3.3 mg/kg salubrinal (approximately 80 μL for a 30 g mouse) or an equivalent volume of empty injection vehicle. […]

[4] = system: Flp-In T-REx 293 cells inducibly expressing delta-E Torsin1a; test: Cytotoxicity (cell count, cellular morphology) in the Torsin1a assay cell line; assay type: cell-based, human; conditions: for Cytotox CC-v2 (dose response Curve Class): curve class per Inglese et al. 2006
Procedure: as §1
Efficacy is calculated as the magnitude of the pathology correction relative to the mutant Torsin1a pathology. For example an efficacy=−100% would be equivalent to the WT TorsinA phenotype, and 0% would be equivalent to the Mutant TorsinA phenotype. CCv2 refers to the dose response Curve Class annotation, and AC refers to Active Concentration.

[5] = delta-E Torsin1a assay cell line

CC(C)CN(C[C@@H](O)[C@H](Cc1ccccc1)NC(=O)O[C@H]1CO[C@H]2OCC[C@H]21)S(=O)(=O)c1ccc(N)cc1 [Darunavir]
ΔE TorsinA Mislocalization Assay Localization EC50 [1, 5]: No Activity | C.Luc. Secretion Assay Secretion EC50 [2]: No Activity

CCN(CC)CCC(=O)N1N=C(c2c(-c3ccccc3)c3cc(Br)ccc3[nH]c2=O)CC1c1ccc(Br)cc1 (stereo not shown) [CCT020312]
effect on delta-E Torsin1a localization (cells with puncta), in words ([1]; delta-E cell line): dose-dependent reduction in the number of cells with Torsin1a inclusions

C[C@H](NC(=O)Cc1cc(F)cc(F)c1)C(=O)N[C@H](C(=O)OC(C)(C)C)c1ccccc1 [DAPT]
effect on delta-E Torsin1a localization (cells with puncta), in words ([1]; delta-E cell line): no effect

N=C(N)N/N=C/c1c(Cl)cccc1Cl [guanabenz]
effect on delta-E Torsin1a localization (cells with puncta), in words ([1]; delta-E cell line): no effect

Cc1c(O)cccc1C(=O)N[C@@H](CSc1ccccc1)[C@H](O)CN1C[C@H]2CCCC[C@H]2C[C@H]1C(=O)NC(C)(C)C [Nelfinavir]
Emax ([1]; Homo sapiens, delta-E Torsin1a assay cell line, read-out: ΔE TorsinA Mislocalization Assay Localization Max Efficacy): 80% | effect on delta-E Torsin1a localization (cells with puncta), in words ([1]; delta-E cell line): corrected TorsinA localization in a dose-dependent fashion

O=C(/C=C/c1ccccc1)NC(NC(=S)Nc1cccc2cccnc12)C(Cl)(Cl)Cl (stereo not shown) [Salubrinal]
steady-state EGFP-Torsin1a levels, in words ([1]; delta-E cell line): without modifying steady-state EGFP-Torsin1a levels | effect on delta-E Torsin1a localization (cells with puncta), in words ([1]; delta-E cell line): robust dose-dependent normalization | perinatal survival / mortality of delta-E/delta-E pups ([3]; 3.3 mg/kg subcutaneous daily to pregnant dams, about embryonic day 10 through delivery, versus vehicle): dramatically reduced the mortality; also recorded: improves perinatal survival | mortality of wild-type and heterozygous pups ([3]; 3.3 mg/kg subcutaneous daily to pregnant dams, versus vehicle): no mortality differences | homozygous delta-E Torsin1a pups surviving through the second postnatal day ([3]; no postnatal treatment, no vehicle-treated homozygous pup survived the first postnatal day): two

CC(C)(C)NC(=O)[C@@H]1CN(Cc2cccnc2)CCN1C[C@@H](O)C[C@@H](Cc1ccccc1)C(=O)N[C@H]1c2ccccc2C[C@H]1O [Indinavir]
effect on delta-E Torsin1a localization (cells with puncta), in words ([1]; delta-E cell line): corrected TorsinA localization in a dose-dependent fashion

CC(C)CN(C[C@@H](O)[C@H](Cc1ccccc1)NC(=O)O[C@H]1CCOC1)S(=O)(=O)c1ccc(N)cc1 [Amprenavir]
ΔE TorsinA Mislocalization Assay Localization EC50 [1, 5]: No Activity | Cytotox CC-v2 (dose response Curve Class) [4]: 4

Cc1c(O)cccc1C(=O)N[C@@H](CSc1ccccc1)[C@H](O)CN1C[C@H]2CCCC[C@H]2C[C@H]1C(=O)NC(C)(C)C [Viracept]
Cytotox Efficacy [4]: −106.32% | Cytotox Max Resp [4]: −97.72% | Cytotox CC-v2 (dose response Curve Class) [4]: −1.1

CS(=O)(=O)O.Cc1c(O)cccc1C(=O)N[C@@H](CSc1ccccc1)[C@H](O)CN1C[C@H]2CCCC[C@H]2C[C@H]1C(=O)NC(C)(C)C.O [Nelfinavir mesylae hydrate]
% pathology CC-v2 (dose response Curve Class) [1]: −1.1 | Cytotox Efficacy [4]: −98.05% | Cytotox Max Resp [4]: −95.64% | Cytotox CC-v2 (dose response Curve Class) [4]: −1.1

CC(C)(C)NC(=O)[C@@H]1C[C@@H]2CCCC[C@@H]2CN1C[C@@H](O)[C@H](Cc1ccccc1)NC(=O)[C@H](CC(N)=O)NC(=O)c1ccc2ccccc2n1 [Saquinavir]
effect on delta-E Torsin1a localization (cells with puncta), in words ([1]; delta-E cell line): corrected TorsinA localization in a dose-dependent fashion | effect on secretory deficits, in words [2]: corrected secretory deficits

CC(C)(C)NC(=O)[C@@H]1CN(Cc2cccnc2)CCN1C[C@@H](O)C[C@@H](Cc1ccccc1)C(=O)N[C@H]1c2ccccc2C[C@H]1O [Indinavir sulfate]
Cytotox Efficacy [4]: −80.64% | Cytotox Max Resp [4]: −67.80% | Cytotox CC-v2 (dose response Curve Class) [4]: −3

CC(C)c1nc(CN(C)C(=O)N[C@H](C(=O)N[C@@H](Cc2ccccc2)C[C@H](O)[C@H](Cc2ccccc2)NC(=O)OCc2cncs2)C(C)C)cs1 [Ritonavir]
effect on delta-E Torsin1a localization (cells with puncta), in words ([1]; delta-E cell line): corrected TorsinA localization in a dose-dependent fashion; also recorded: restored | Cytotox CC-v2 (dose response Curve Class) [4]: 4 | effect on secretory deficits, in words [2]: corrected secretory deficits

Cc1cccc(C)c1OCC(=O)NC(CCC(Cc1ccccc1)NC(=O)C(C(C)C)N1CCCNC1=O)Cc1ccccc1 (stereo not shown) [Des-hydroxy Lopinavir]
% pathology CC-v2 (dose response Curve Class) [1]: −3 | Cytotox Efficacy [4]: −77.66% | Cytotox Max Resp [4]: −66.67% | Cytotox CC-v2 (dose response Curve Class) [4]: −2.2

CCCC(CCC)C(=O)O [valproic acid]
effect on delta-E Torsin1a localization (cells with puncta), in words ([1]; delta-E cell line): no effect

COC(=O)N[C@H](C(=O)N[C@@H](Cc1ccccc1)[C@@H](O)CN(Cc1ccc(-c2ccccn2)cc1)NC(=O)[C@@H](NC(=O)OC)C(C)(C)C)C(C)(C)C [Atazanavir]
ΔE TorsinA Mislocalization Assay Localization EC50 [1, 5]: No Activity | Cytotox CC-v2 (dose response Curve Class) [4]: 4
